# Experimental data from ChEMBL document CHEMBL1153298, “Discovery of tetrahydro-cyclopenta[b]indole as selective LXRs modulator” (Bioorg Med Chem Lett, 2009).
# The source made the active and inactive calls. The rule behind the calls is not given here.
# Legend:
# Mus musculus [1] = assay: Increase in liver triglyceride level in C57BL/6J mouse at 10 mg/kg/day, ip dosed for 5 days measured 2 hrs after last dose; assay type: functional; details: route intraperitoneal
# Mus musculus [2] = assay: Increase in HDL-cholesterol level in C57BL/6J mouse at 10 mg/kg/day, ip dosed for 5 days measured 2 hrs after last dose; assay type: functional; details: route intraperitoneal
# [3] = Drug level in C57BL/6J mouse liver at 10 mg/kg/day, ip dosed for 5 days; assay type: ADME, organism-based; design: route intraperitoneal; details: read-out: Drug uptake
# Mus musculus [4] = assay: Increase in plasma triglyceride level in C57BL/6J mouse at 10 mg/kg/day, ip dosed for 5 days measured 2 hrs after last dose; assay type: functional; details: route intraperitoneal
# [5] = Plasma concentration in C57BL/6J mouse at 10 mg/kg/day, ip dosed for 5 days; assay type: ADME, organism-based; design: route intraperitoneal
# [6] = target: T1, Oxysterols receptor LXR-alpha (Homo sapiens) (UniProt Q13133); assay: (§1) Transactivation of LXRalpha
# T1 sequence (whole entry): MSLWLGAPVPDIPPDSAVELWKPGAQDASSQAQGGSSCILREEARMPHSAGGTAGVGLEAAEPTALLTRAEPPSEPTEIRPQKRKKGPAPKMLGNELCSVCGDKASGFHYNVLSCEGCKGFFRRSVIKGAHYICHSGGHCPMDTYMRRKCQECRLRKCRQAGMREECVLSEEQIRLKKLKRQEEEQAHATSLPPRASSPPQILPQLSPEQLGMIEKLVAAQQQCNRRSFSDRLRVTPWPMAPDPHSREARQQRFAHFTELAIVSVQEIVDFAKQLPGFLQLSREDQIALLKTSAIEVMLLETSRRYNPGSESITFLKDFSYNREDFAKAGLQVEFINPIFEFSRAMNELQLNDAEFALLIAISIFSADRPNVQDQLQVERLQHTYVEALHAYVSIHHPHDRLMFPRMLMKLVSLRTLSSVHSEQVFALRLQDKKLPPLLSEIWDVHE
# [7] = target: T1, Oxysterols receptor LXR-alpha (Homo sapiens); assay: (§2) Binding affinity to LXRalpha
# Mus musculus [8] = assay: Increase in plasma triglyceride level in C57BL/6J mouse at 40 mg/kg/day, ip dosed for 5 days measured 2 hrs after last dose; assay type: functional; details: route intraperitoneal
# [9] = Drug level in C57BL/6J mouse liver at 40 mg/kg/day, ip dosed for 5 days; assay type: ADME, organism-based; design: route intraperitoneal; details: read-out: Drug uptake
# [10] = Plasma concentration in C57BL/6J mouse at 40 mg/kg/day, ip dosed for 5 days; assay type: ADME, organism-based; design: route intraperitoneal
# [11] = Drug level in C57BL/6J mouse liver at 100 mg/kg/day, ip dosed for 5 days; assay type: ADME, organism-based; design: route intraperitoneal; details: read-out: Drug uptake
# Mus musculus [12] = assay: Increase in plasma triglyceride level in C57BL/6J mouse at 100 mg/kg/day, ip dosed for 5 days measured 2 hrs after last dose; assay type: functional; details: route intraperitoneal
# Cytochrome P450 3A4 = Cytochrome P450 3A4 (Homo sapiens, UniProt P08684); assay: Binding affinity to CYP3A4; assay type: ADME
# Cytochrome P450 3A4, sequence (P08684 whole entry): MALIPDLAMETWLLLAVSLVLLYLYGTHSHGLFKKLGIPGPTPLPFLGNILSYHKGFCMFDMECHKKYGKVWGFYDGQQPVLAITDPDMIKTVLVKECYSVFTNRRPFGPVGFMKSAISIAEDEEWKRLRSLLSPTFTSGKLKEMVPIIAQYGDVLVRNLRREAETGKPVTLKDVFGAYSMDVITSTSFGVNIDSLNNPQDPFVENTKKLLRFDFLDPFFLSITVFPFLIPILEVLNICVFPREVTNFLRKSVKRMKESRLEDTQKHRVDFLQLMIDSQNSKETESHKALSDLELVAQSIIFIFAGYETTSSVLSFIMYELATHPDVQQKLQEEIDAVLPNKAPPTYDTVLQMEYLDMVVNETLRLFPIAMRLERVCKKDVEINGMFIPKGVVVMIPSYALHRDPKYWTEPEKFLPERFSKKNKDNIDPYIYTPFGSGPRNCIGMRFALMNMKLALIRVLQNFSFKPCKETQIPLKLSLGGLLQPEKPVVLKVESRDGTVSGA
# [13] = target: Voltage-gated inwardly rectifying potassium channel KCNH2 (Homo sapiens, UniProt Q12809); assay: Binding affinity to human ERG
# Voltage-gated inwardly rectifying potassium channel KCNH2, sequence (Q12809 whole entry): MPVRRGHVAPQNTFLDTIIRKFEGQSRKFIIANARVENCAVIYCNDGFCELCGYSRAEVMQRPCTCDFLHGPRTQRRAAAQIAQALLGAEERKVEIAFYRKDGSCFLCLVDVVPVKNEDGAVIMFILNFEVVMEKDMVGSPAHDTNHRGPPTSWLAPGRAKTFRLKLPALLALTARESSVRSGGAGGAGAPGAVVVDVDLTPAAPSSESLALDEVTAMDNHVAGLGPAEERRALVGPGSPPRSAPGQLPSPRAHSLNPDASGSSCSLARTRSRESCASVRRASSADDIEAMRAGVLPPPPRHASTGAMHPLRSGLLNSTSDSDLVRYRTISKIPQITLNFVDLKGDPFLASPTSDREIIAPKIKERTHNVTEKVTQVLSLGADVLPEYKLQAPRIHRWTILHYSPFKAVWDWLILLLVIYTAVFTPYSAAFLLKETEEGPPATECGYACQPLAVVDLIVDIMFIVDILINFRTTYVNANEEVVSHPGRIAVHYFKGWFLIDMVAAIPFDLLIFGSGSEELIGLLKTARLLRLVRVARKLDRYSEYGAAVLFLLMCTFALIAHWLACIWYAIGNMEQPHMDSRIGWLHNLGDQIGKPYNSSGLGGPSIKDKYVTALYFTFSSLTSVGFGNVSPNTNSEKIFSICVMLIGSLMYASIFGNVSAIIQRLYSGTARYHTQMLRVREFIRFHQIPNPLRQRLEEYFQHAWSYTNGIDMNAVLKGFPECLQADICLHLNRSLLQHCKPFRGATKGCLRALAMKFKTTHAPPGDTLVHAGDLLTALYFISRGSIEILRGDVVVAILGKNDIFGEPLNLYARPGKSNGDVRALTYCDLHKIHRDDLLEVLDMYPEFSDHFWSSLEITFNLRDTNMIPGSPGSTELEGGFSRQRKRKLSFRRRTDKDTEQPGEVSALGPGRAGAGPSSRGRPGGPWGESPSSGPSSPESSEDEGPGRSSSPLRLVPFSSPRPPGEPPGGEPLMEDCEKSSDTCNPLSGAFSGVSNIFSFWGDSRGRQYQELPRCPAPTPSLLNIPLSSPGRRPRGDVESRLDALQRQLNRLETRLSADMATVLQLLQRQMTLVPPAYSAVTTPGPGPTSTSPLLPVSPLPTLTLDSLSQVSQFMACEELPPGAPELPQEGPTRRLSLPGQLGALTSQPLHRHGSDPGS
# [14] = Plasma concentration in C57BL/6J mouse at 100 mg/kg/day, ip dosed for 5 days; assay type: ADME, organism-based; design: route intraperitoneal
# Mus musculus [15] = assay: Increase in HDL-cholesterol level in C57BL/6J mouse at 40 mg/kg/day, ip dosed for 5 days measured 2 hrs after last dose; assay type: functional; details: route intraperitoneal
# Mus musculus [16] = assay: Increase in HDL-cholesterol level in C57BL/6J mouse at 100 mg/kg/day, ip dosed for 5 days measured 2 hrs after last dose; assay type: functional; details: route intraperitoneal
# Mus musculus [17] = assay: Increase in liver triglyceride level in C57BL/6J mouse at 40 mg/kg/day, ip dosed for 5 days measured 2 hrs after last dose; assay type: functional; details: route intraperitoneal
# Mus musculus [18] = assay: Increase in liver triglyceride level in C57BL/6J mouse at 100 mg/kg/day, ip dosed for 5 days measured 2 hrs after last dose; assay type: functional; details: route intraperitoneal
# [19] = target: T2, Oxysterols receptor LXR-alpha (Homo sapiens, UniProt Q13133); assay: as §1
# T2 sequence (Q13133 whole entry): T1 sequence (whole entry)
# [20] = target: T2, Oxysterols receptor LXR-alpha; assay: as §2
compound,measurement,setting,value
O=S(=O)(c1ccccc1)N(CC(F)(F)F)c1ccc(C(O)(C(F)(F)F)C(F)(F)F)cc1 [T091317],Activity,Mus musculus [1],270%
same,Activity,Mus musculus [2],23%
same,concentration at 120 h,[3],7900 ng/g
same,Activity,Mus musculus [4],20%
same,concentration at 120 h,[5],255 ng/mL
COC(=O)C(C)(C1CCCc2c([nH]c3ccc(Cl)cc23)C1)S(=O)(=O)c1ccccc1 (stereo not drawn),Activity,[6],inactive
same,Activity,[7],inactive
Cc1nnc([C@](F)([C@H]2Cc3[nH]c4ccc(Cl)cc4c3C2)S(=O)(=O)c2ccccc2)o1,Activity,Mus musculus [1],100%
same,Activity,Mus musculus [8],9%
same,Activity,Mus musculus [2],27%
same,concentration at 120 h,[9],5490 ng/g
same,concentration at 120 h,[10],682 ng/mL
same,concentration at 120 h,[3],1130 ng/g
same,concentration at 120 h,[11],13200 ng/g
same,Activity,Mus musculus [12],-2%
same,Activity,Cytochrome P450 3A4,Not Active
same,Activity,Mus musculus [4],9%
same,Activity,[13],Not Active
same,concentration at 120 h,[14],2150 ng/mL
same,Activity,Mus musculus [15],27%
same,Activity,Mus musculus [16],36%
same,Activity,Mus musculus [17],-19%
same,concentration at 120 h,[5],180 ng/mL
same,Activity,Mus musculus [18],45%
COC(=O)c1noc([C@](F)([C@H]2Cc3[nH]c4ccc(Cl)cc4c3C2)S(=O)(=O)c2ccccc2)n1 (racemic),EC50,[19],1260 nM
same,IC50,[20],1630 nM
N#Cc1noc([C@](F)([C@H]2Cc3[nH]c4ccc(Cl)cc4c3C2)S(=O)(=O)c2ccccc2)n1 (racemic),EC50,[19],160 nM
same,IC50,[20],100 nM
